Read-outs that look alike come from different tables or passages of the source.
Tests used:
in vitro [1] = conditions: human
in vitro [2] = conditions: human; remark: listed apart in the source
[3] = test system: direct contact triculture (astrocytes, pericytes, HBEC-5i); conditions: optimized triculture; radiolabeled marker, 0.25 μCi/mL in HBSS
in vitro [4] = conditions: human; remark: listed apart in the source
[5] = test system: NVU model (direct contact triculture with SH-SY5Y neurons); conditions: for flux: human, 3 h, 50 μM
[6] = test system: direct contact triculture; experiment: Triculture cell viability assay (MTT); format: cell-based, human; conditions: following 3 hours of permeation; no significant change vs control (p>0.05)
SH-SY5Y neurons = experiment: BBB permeability linked neuroactivity (Neurite Outgrowth Staining Kit); conditions: 50 μM initial apical concentration, 3 hour permeation, n=4
[7] = human
[8] = test system: NVU model (direct contact triculture with SH-SY5Y neurons); experiment: Permeability across optimized NVU model (triculture with SH-SY5Y neurons in basolateral chamber)

Row | Molecule | Papp A→B at 180 min (in vitro [2]) [×10⁻⁶ cm/s] | flux [5] [pg/cm^2·sec] | viability of the triculture (MTT), percent of the control [6] [%] | Papp A→B at 150 min, 25 μM (in vitro [1]) [×10⁻⁶ cm/s] | other results
1 | OC[C@@H](O)[C@@H](O)[C@H](O)[C@H](O)CO [mannitol] | – | – | – | – | Papp A→B at 90 min, 0.25 μCi/mL (in vitro [1]): 19.9 ×10⁻⁶ cm/s
2 | N[C@@H](Cc1c[nH]cn1)C(=O)O [L-histidine] | – | – | – | – | Papp A→B at 90 min, 0.25 μCi/mL (in vitro [1]): 52.6 ×10⁻⁶ cm/s
3 | COc1ccc2[nH]cc(CCNC(C)=O)c2c1 [melatonin] | 18.3 | – | – | – | –
4 | PEG-4000 | – | – | – | – | Papp [3]: 0.78×10^−5±0.00 cm/sec
5 | CN1CCN(C2=Nc3cc(Cl)ccc3Nc3ccccc32)CC1 [clozapine] | 11.4 | 372±19 | 99±4 | 8.15 | viability at 3 h, 50 μM (in vitro [4]): 143 ± 20%; change in permeation rate across the NVU model in comparison to the optimized triculture alone [5]: significant increase; neurite outgrowth, percent of control NVU SH-SY5Y cells with vehicle (SH-SY5Y neurons): 111±12%
6 | Cn1c(=O)c2c(ncn2C)n(C)c1=O [caffeine] | 30.7 | 269±14 | 104±25 | 28.9 | viability at 3 h, 50 μM (in vitro [4]): 159 ± 34%; neurite outgrowth, percent of control NVU SH-SY5Y cells with vehicle (SH-SY5Y neurons): 122±26%
7 | COc1cc2c(c(OC)c1OC)-c1ccc(OC)c(=O)cc1[C@@H](NC(C)=O)CC2 [colchicine] | – | – | – | – | Papp A→B at 150 min, 25 μM [7]: 18.7 ×10⁻⁶ cm/s
8 | NC(=O)N1c2ccccc2C=Cc2ccccc21 [carbamazepine] | – | 310±9 | 103±5 | 27.7 | viability at 3 h, 50 μM (in vitro [4]): 96 ± 18%; Papp [5]: 25.37±2.80×0^−6 cm/sec
9 | inulin | – | – | – | – | Papp [3]: 1.55×10^−5±0.01 cm/sec
10 | COc1cc2nc(N3CCN(C(=O)c4ccco4)CC3)nc(N)c2cc1OC [prazosin] | 3.9 | 166±14 | 82±6 | 6.16 | change in permeation rate across the NVU model in comparison to the optimized triculture alone [5]: significant decreases
11 | CS(=O)(=O)CCNCc1ccc(-c2ccc3ncnc(Nc4ccc(OCc5cccc(F)c5)c(Cl)c4)c3c2)o1 [Lapatinib] | – | – | – | – | detection in the receiver chamber after 3 hours [8]: undetectable

From US20210062146A1, “OPTIMIZED IN VITRO CELLULAR SYSTEM FOR BBB PERMEABILITY LINKED NEUROACTIVITY SCREENING” (priority 2019, published 2021)
